Measurements as given in PubChem BioAssay (NCI).
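Cells were grown in 96-well plates and exposed to each compound for 48 hours at five concentrations; endpoints were interpolated linearly between bracketing concentrations, or set to the highest concentration if not reached. GI50 is the concentration that inhibits growth by half. TGI denotes the concentration required for complete inhibition of growth.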

Key:
Assay in all cases: NCI tumour cell line growth inhibition, 48 h
[1] = test system: 786-0 renal
[2] = test system: A498 renal
[3] = test system: A549 NSCLC
[4] = test system: ACHN renal
[5] = test system: BT-549 breast
[6] = test system: CAKI-1 renal
[7] = test system: CCRF-CEM leukemia
[8] = test system: COLO 205 colon
[9] = test system: DU-145 prostate
[10] = test system: EKVX NSCLC
[11] = test system: HCC-2998 colon
[12] = test system: HCT-116 colon
[13] = test system: HCT-15 colon
[14] = test system: HL-60(TB) leukemia
[15] = test system: HOP-62 NSCLC
[16] = test system: HOP-92 NSCLC
[17] = test system: HS 578T breast
[18] = test system: HT29 colon
[19] = test system: IGROV1 ovarian
[20] = test system: K-562 leukemia
[21] = test system: KM12 colon
[22] = test system: LOX IMVI melanoma
[23] = test system: M14 melanoma
[24] = test system: MALME-3M melanoma
[25] = test system: MCF7 breast
[26] = test system: MDA-MB-231 breast
[27] = test system: MDA-MB-435
[28] = test system: MDA-MB-468 breast
[29] = test system: MOLT-4 leukemia
[30] = test system: NCI-H226 lung
[31] = test system: NCI-H23 lung
[32] = test system: NCI-H460 lung
[33] = test system: NCI-H522 lung
[34] = test system: NCI/ADR-RES ovarian
[35] = test system: OVCAR-3 ovarian
[36] = test system: OVCAR-4 ovarian
[37] = test system: OVCAR-5 ovarian
[38] = test system: OVCAR-8 ovarian
[39] = test system: PC-3 prostate
[40] = test system: RPMI-8226 leukemia
[41] = test system: RXF 393 renal
[42] = test system: SF-268 CNS
[43] = test system: SF-295 CNS
[44] = test system: SF-539 CNS
[45] = test system: SK-MEL-2 melanoma
[46] = test system: SK-MEL-28 melanoma
[47] = test system: SK-MEL-5 melanoma
[48] = test system: SK-OV-3 ovarian
[49] = test system: SN12C renal
[50] = test system: SNB-19 CNS
[51] = test system: SNB-75 CNS
[52] = test system: SR leukemia
[53] = test system: SW-620 colon
[54] = test system: T-47D breast
[55] = test system: TK-10 renal
[56] = test system: U251 CNS
[57] = test system: UACC-257 melanoma
[58] = test system: UACC-62 melanoma
[59] = test system: UO-31 renal

Work on `COc1cc(Nc2nc(O)c(/C=C3\C=Nc4ccccc43)s2)cc(OC)c1OC` yielded a GI50 [1] of 2.72 µM, a TGI [1] of 11.9 µM and a GI50 [2] of 10.2 µM. The TGI [2] was 24.6 µM, the GI50 [3] was 2.84 µM and the TGI [3] was 16.5 µM. The GI50 [4] was 3.2 µM, the TGI [4] was 12 µM and the GI50 [5] was 0.81 µM. It also gave a TGI [5] of 10.7 µM, a GI50 [6] of 0.84 µM and a TGI [6] of 10.3 µM. For the same compound, the GI50 [7] was 2.09 µM, the TGI [7] was greater than 100 µM and the GI50 [8] was 3.14 µM. It also gave a TGI [8] of 16.4 µM, a GI50 [9] of 4.63 µM and a TGI [9] of 17.2 µM. It also gave a GI50 [10] of 8.02 µM, a TGI [10] of 22.2 µM and a GI50 [11] of 6.36 µM. The TGI [11] was 20.7 µM, the GI50 [12] was 1.1 µM and the TGI [12] was 10.2 µM. For the same compound, the GI50 [13] was 1.79 µM, the TGI [13] was 12.4 µM and the GI50 [14] was 0.854 µM. It also gave a TGI [14] of 11.1 µM, a GI50 [15] of 2.69 µM and a TGI [15] of 15.7 µM. It also gave a GI50 [16] of 1.98 µM, a TGI [16] of 6.38 µM and a GI50 [17] of 2.33 µM. For the same compound, the TGI [17] was 11.9 µM, the GI50 [18] was 0.923 µM and the TGI [18] was 10.1 µM. It also gave a GI50 [19] of 4.91 µM, a TGI [19] of 21.6 µM and a GI50 [20] of 0.526 µM. For the same compound, the TGI [20] was 31.1 µM, the GI50 [21] was 0.977 µM and the TGI [21] was 16.8 µM. The GI50 [22] was 2.82 µM, the TGI [22] was 13.9 µM and the GI50 [23] was 2.02 µM. It also gave a TGI [23] of 15.9 µM, a GI50 [24] of 2.01 µM and a TGI [24] of 15.2 µM. It also gave a GI50 [25] of 1.79 µM, a TGI [25] of 11.9 µM and a GI50 [26] of 4.77 µM. It also gave a TGI [26] of 18.8 µM, a GI50 [27] of 0.28 µM and a TGI [27] of 0.94 µM. For the same compound, the GI50 [28] was 0.657 µM, the TGI [28] was 6.23 µM and the GI50 [29] was 2.63 µM. It also gave a TGI [29] of 26 µM, a GI50 [30] of 3.18 µM and a TGI [30] of 17.4 µM. The GI50 [31] was 5.33 µM, the TGI [31] was 21.1 µM and the GI50 [32] was 2.1 µM. For the same compound, the TGI [32] was 14.3 µM, the GI50 [33] was 0.403 µM and the TGI [33] was 5.56 µM. For the same compound, the GI50 [34] was 6.24 µM, the TGI [34] was 24.2 µM and the GI50 [35] was 0.517 µM. The TGI [35] was 5.32 µM, the GI50 [36] was 2.88 µM and the TGI [36] was 10.6 µM. The GI50 [37] was 4.58 µM, the TGI [37] was 17.7 µM and the GI50 [38] was 10.6 µM. It also gave a TGI [38] of 27.2 µM, a GI50 [39] of 2.59 µM and a TGI [39] of 22.6 µM. For the same compound, the GI50 [40] was 5.73 µM, the TGI [40] was greater than 100 µM and the GI50 [41] was 1 µM. The TGI [41] was 5.8 µM, the GI50 [42] was 3.56 µM and the TGI [42] was 20 µM. The GI50 [43] was 2.27 µM, the TGI [43] was 13.4 µM and the GI50 [44] was 2.49 µM. It also gave a TGI [44] of 9.95 µM, a GI50 [45] of 1.45 µM and a TGI [45] of 12.2 µM. It also gave a GI50 [46] of 6.07 µM, a TGI [46] of 21 µM and a GI50 [47] of 2.46 µM. It also gave a TGI [47] of 14.1 µM, a GI50 [48] of 2.56 µM and a TGI [48] of 10.3 µM. It also gave a GI50 [49] of 3.85 µM, a TGI [49] of 15.1 µM and a GI50 [50] of 6.6 µM. For the same compound, the TGI [50] was 21.2 µM, the GI50 [51] was 1.24 µM and the TGI [51] was 3.63 µM. For the same compound, the GI50 [52] was 0.394 µM, the TGI [52] was 29.9 µM and the GI50 [53] was 3.1 µM. It also gave a TGI [53] of 21.8 µM, a GI50 [54] of 3.58 µM and a TGI [54] of 19.7 µM. The GI50 [55] was 8.56 µM, the TGI [55] was 22.8 µM and the GI50 [56] was 3.27 µM. The TGI [56] was 15.7 µM, the GI50 [57] was 5.18 µM and the TGI [57] was 21.1 µM. It also gave a GI50 [58] of 4.75 µM, a TGI [58] of 19.7 µM and a GI50 [59] of 3.43 µM. The TGI [59] was 13.7 µM.
With `O=C(N/N=C/c1ccc(Br)o1)c1[nH]c2ccc(Br)cc2c1-c1ccccc1` the GI50 [1] was 0.397 µM, the TGI [1] was 6.15 µM and the GI50 [2] was 23.6 µM. For the same compound, the TGI [2] was greater than 69.6 µM, the GI50 [3] was 0.383 µM and the TGI [3] was 28.7 µM. For the same compound, the GI50 [4] was 0.504 µM, the TGI [4] was 40.1 µM and the GI50 [5] was 0.379 µM. For the same compound, the TGI [5] was 2.13 µM, the GI50 [6] was 0.424 µM and the TGI [6] was 24.2 µM. For the same compound, the GI50 [7] was 0.311 µM, the TGI [7] was 17.9 µM and the GI50 [8] was 0.227 µM. The TGI [8] was 0.482 µM, the GI50 [9] was 0.391 µM and the TGI [9] was 14.7 µM. The GI50 [10] was 0.539 µM, the TGI [10] was 59.9 µM and the GI50 [11] was 0.385 µM. The TGI [11] was 18.5 µM, the GI50 [12] was 0.311 µM and the TGI [12] was 4.21 µM. The GI50 [13] was 0.353 µM, the TGI [13] was 23.9 µM and the GI50 [14] was 0.235 µM. The TGI [14] was 0.69 µM, the GI50 [15] was 0.565 µM and the TGI [15] was 27.4 µM. For the same compound, the GI50 [16] was 1.14 µM, the TGI [16] was 32.7 µM and the GI50 [17] was 0.323 µM. For the same compound, the TGI [17] was 12.8 µM, the GI50 [18] was 0.298 µM and the TGI [18] was 2.98 µM. It also gave a GI50 [19] of 0.421 µM, a TGI [19] greater than 46.7 µM and a GI50 [20] of 0.339 µM. For the same compound, the TGI [20] was greater than 44.5 µM, the GI50 [21] was 0.352 µM and the TGI [21] was greater than 44.5 µM. The GI50 [22] was 0.336 µM, the TGI [22] was 16.3 µM and the GI50 [23] was 0.351 µM. It also gave a TGI [23] of 30.2 µM, a GI50 [24] of 0.48 µM and a TGI [24] of 47.5 µM. The GI50 [25] was 0.341 µM, the TGI [25] was greater than 100 µM and the GI50 [26] was 0.352 µM. The TGI [26] was 12.3 µM, the GI50 [27] was 0.216 µM and the TGI [27] was 0.567 µM. For the same compound, the GI50 [28] was 0.228 µM, the TGI [28] was 0.585 µM and the GI50 [29] was 0.431 µM. It also gave a TGI [29] greater than 38.2 µM, a GI50 [30] of 0.511 µM and a TGI [30] of 6.32 µM. It also gave a GI50 [31] of 0.393 µM, a TGI [31] of 29.3 µM and a GI50 [32] of 0.326 µM. The TGI [32] was 10.8 µM, the GI50 [33] was 0.177 µM and the TGI [33] was 0.549 µM. For the same compound, the GI50 [34] was 0.231 µM, the TGI [34] was 0.583 µM and the GI50 [35] was 0.415 µM. For the same compound, the TGI [35] was 17.1 µM, the GI50 [36] was 5.39 µM and the TGI [36] was greater than 53.3 µM. For the same compound, the GI50 [37] was 0.372 µM, the TGI [37] was 22 µM and the GI50 [38] was 0.297 µM. It also gave a TGI [38] of 2.83 µM, a GI50 [39] of 0.398 µM and a TGI [39] greater than 53.8 µM. It also gave a GI50 [40] of 0.415 µM, a TGI [40] greater than 100 µM and a GI50 [41] of 0.443 µM. It also gave a TGI [41] of 21.4 µM, a GI50 [42] of 0.861 µM and a TGI [42] greater than 52.9 µM. For the same compound, the GI50 [43] was 0.353 µM, the TGI [43] was greater than 38.6 µM and the GI50 [44] was 0.226 µM. It also gave a TGI [44] of 0.562 µM, a GI50 [45] of 0.407 µM and a TGI [45] greater than 100 µM. For the same compound, the GI50 [46] was 1.12 µM, the TGI [46] was 46.9 µM and the GI50 [47] was 0.204 µM. For the same compound, the TGI [47] was 0.424 µM, the GI50 [48] was 0.731 µM and the TGI [48] was greater than 65.4 µM. The GI50 [49] was 0.377 µM, the TGI [49] was 14.2 µM and the GI50 [50] was 0.455 µM. It also gave a TGI [50] greater than 81.8 µM, a GI50 [51] of 0.464 µM and a TGI [51] of 22.8 µM. It also gave a GI50 [52] of 0.345 µM, a TGI [52] of 22.4 µM and a GI50 [53] of 0.374 µM. For the same compound, the TGI [53] was 22.9 µM, the GI50 [54] was 4.18 µM and the TGI [54] was greater than 100 µM. The GI50 [55] was 5.31 µM, the TGI [55] was greater than 46.5 µM and the GI50 [56] was 0.337 µM. It also gave a TGI [56] of 16.9 µM, a GI50 [57] of 2.69 µM and a TGI [57] greater than 100 µM. It also gave a GI50 [58] of 0.395 µM, a TGI [58] greater than 76.5 µM and a GI50 [59] of 0.679 µM. For the same compound, the TGI [59] was 28.8 µM.
